Where two headings read alike, the source gives them in different places.
Assays:
HCMV [1] = conditions: background, literature report; cited from earlier work
HCMV Strain AD169 = assay: HCMV plaque reduction assay, strain AD169; assay type: cell-based, Human cytomegalovirus; conditions: Human betaherpesvirus 5, Table 3, read-out: HCMV Strain AD169 plaque 50% Inhibitory Concentration (IC50)
Experimental: (§1) HFF cells in 24-well cluster dishes were infected with approximately 100 p.f.u. of HCMV per cm^2 cell sheet using the procedures detailed above. Following virus adsorption, compounds dissolved in growth medium were added to duplicate wells in four to eight selected concentrations. After incubation at 37° C. for 7 to 10 days, cell sheets were fixed, stained with crystal violet and microscopic plaques enumerated as described above.
(§2) Dose-response relationships were constructed by linearly regressing the percent inhibition of parameters derived in the preceding sections against log drug concentrations. Fifty-percent inhibitory concentrations (IC50's) or IC90's were calculated from the regression lines. Samples containing positive controls (acyclovir for HSV-1, ganciclovir for HCMV, and 2-acetylpyridine thiosemicarbazone for cytotoxicity) were used in all assays.

[2] = Visual cytotoxicity in stationary HFF cells; assay type: cell-based; conditions: human; HFF cells, scored at time of HCMV plaque enumeration; read-out: Cytotoxicity visual (IC50)
Experimental: (§3) Two different assays were used for routine cytotoxicity testing. (i) Cytotoxicity produced in stationary HFF cells was determined by microscopic inspection of cells not affected by the virus used in plaque assays (see Turk, S. R.; Shipman, C., Jr.; Nassiri, M. R.; Genzingler, G.; Krawczyk, S. H.; Townsend, L. B.; Drach, J. C. Pyrrolo[2,3-]pyrimidine Nucleosides as Inhibitors of Human Cytomegalovirus, Antimicrob. Agents Chemother. 1987, 31, 544-550). (ii) The effect of compounds during two population doublings of KB cells was determined by crystal violet staining and spectrophotometric quantitation of dye eluted from stained cells as described earlier (see Prichard, M. N.; Prichard, L. E., Baguley, W. A.; Nassiri, M. R.; Shipman, C., Jr. Three-Dimensional Analysis of the Synergistic Cytotoxicity of Ganciclovir and Zidovudine. Antiviral Res. 1991, 35, 1060-1065). Briefly, 96-well cluster dishes were planted with KB cells at 3000-5000 cells per well. After overnight incubation at 37° C., test compound was added in quadruplicate at six to eight concentrations. Plates were incubated at 37° C. for 48 hours in a CO2 incubator, rinsed, fixed with 95% ethanol, and stained with 0.1% crystal violet. Acidified ethanol was added and plates read at 570 nm in a spectrophotometer designed to read 96-well ELISA assay plates.
as §2

HSV-1 [3] = assay: HSV-1 ELISA in BSC-1 cells; assay type: cell-based, herpes simplex virus 1; conditions: Human alphaherpesvirus 1, quadruplicate wells, read-out: HSV-1 ELISA 50% Inhibitory Concentration (IC50)
Experimental: An ELISA was employed (see Prichard, M. N.; Shipman, C., Jr. A Three Dimensional Model to Analyze Drug-Drug Interactions. Antiviral Res. 1990, 14, 181-206) to detect HSV-1. Ninety-six-well cluster dishes were planted with 10,000 BSC-1 cells per well in 200 μL per well of MEM(E) plus 10% calf serum. After overnight incubation at 37° C., selected drug concentrations in quadruplicate and HSV-1 at a concentration of 100 p.f.u./well were added. Following a 3-day incubation at 37° C., medium was removed, plates were blocked, rinsed, and horse radish peroxidase conjugated rabbit anti-HSV-1 antibody was added. Following removal of the antibody containing solution, plates were rinsed, and then developed by adding 150 μL per well of a solution of tetramethylbenzidine as substrate. The reaction was stopped with H2SO4 and absorbance was read at 450 and 570 nm. Drug effects were calculated as a percentage of the reduction in absorbance in the presence of each drug concentration compared to absorbance obtained with virus in the absence of drug.
as §2

Hepatitis B Virus (HBV) = assay: Activity against Hepatitis B Virus (Jansen et al.); assay type: cell-based; conditions: two separate tests
Experimental: The activity of compounds against Hepatitis B Virus (HBV) was assessed as described in Jansen, R., et al., Antimicrobial Agents and Chemotherapy, Vol. 37, No. 3, pp. 441-447, 1993.

[4] = Inhibition of KB cell growth (crystal violet); assay type: cell-based; conditions: human, KB cells; KB cell growth, 48 hours, quadruplicate; read-out: Cytotoxicity growth (IC50)
Experimental: as §3, §2

HCMV [5] = assay: HCMV yield reduction assay (Towne strain) in HFF cells; assay type: cell-based, Human cytomegalovirus
Experimental: (§4) Stock HCMV was prepared by infecting HFF cells at a multiplicity of infection (m.o.i.) of <0.01 plaque-forming units (p.f.u.) per cell as detailed previously (see Turk, S. R.; Shipman, C., Jr.; Nassiri, M. R.; Genzingler, G.; Krawczyk, S. H.; Townsend, L. B.; Drach, J. C. Pyrrolo[2,3-d]pyrimidine Nucleosides as Inhibitors of Human Cytomegalovirus, Antimicrob. Agents Chemother. 1987, 31, 544-550). High titer HSV-1 stocks were prepared by infecting KB cells (ATCC) at an m.o.i. of <0.1 also as detailed previously (see Turk, S. R.; Shipman, C., Jr.; Nassiri, M. R.; Genzingler, G.; Krawczyk, S. H.; Townsend, L. B.; Drach, J. C. Pyrrolo[2,3-d]pyrimidine Nucleosides as Inhibitors of Human Cytomegalovirus, Antimicrob. Agents Chemother. 1987, 31, 544-550). Virus titers were determined using monolayer cultures of HFF cells for HCMV and monolayer cultures of BSC-1 cells for HSV-1 as described earlier (see Prichard, M. N.; Turk, S. R.; Coleman, L. A.; Engelhardt, S. L.; Shipman, C., Jr.; Drach, J. C. A Microtiter Virus Yield Reduction Assay for the Evaluation of Antiviral Compounds Against Human Cytomegalovirus and Herpes Simplex Virus. J. Virol. Methods 1990, 28, 101-106). Briefly, HFF or BSC-1 cells were planted as described above in 96-well cluster dishes and incubated overnight at 37° C. The next day cultures were inoculated with HCMV or HSV-1 and serially diluted 1:3 across the remaining eleven columns of the 96-well plate. After virus adsorption the inoculum was replaced with fresh medium and cultures were incubated for seven days for HCMV, two or three days for HSV-1. Plaques were enumerated under 20-fold magnification in wells having the dilution which gave 5 to 20 plaques per well. Virus titers were calculated according to the following formula: Titer (p.f.u./mL)=number of plaques×5×3^n; where n represents the nth dilution of the virus used to infect the well in which plaques were enumerated.
HFF cells were planted as described above in 96-well cluster dishes, incubated overnight, medium removed and the cultures were inoculated with HCMV at a m.o.i. of 0.5 to 1 p.f.u. per cell as reported elsewhere (see Prichard, M. N.; Turk, S. R.; Coleman, L. A.; Engelhardt, S. L.; Shipman, C., Jr.; Drach, J. C. A Microtiter Virus Yield Reduction Assay for the Evaluation of Antiviral Compounds Against Human Cytomegalovirus and Herpes Simplex Virus. J. Virol. Methods 1990, 28, 101-106). After virus adsorption, inoculum was replaced with 0.2 mL of fresh medium containing test compounds. The first row of 12 wells was left undisturbed and served as virus controls. Each well in the second row received an additional 0.1 mL of medium with test compound at three times the desired final concentration. The contents of the 12 wells were mixed by repeated pipetting and then serially diluted 1:3 along the remaining wells. In this manner, six compounds could be tested in duplicate on a single plate with concentrations from […]. Plates were incubated at 37° C. for seven days, subjected to one cycle of freezing and thawing; aliquots from each of the eight wells of a given column were transferred to the first column of a fresh 96-well monolayer culture of HFF cells. Contents were mixed and serially diluted 1:3 across the remaining eleven columns of the secondary plate. Each column of the original primary plate was diluted across a separate plate in this manner. Cultures were incubated, plaques were enumerated, and titers calculated as described above.
as §2

HCMV [6] = assay: HCMV plaque reduction assay (Towne strain) in HFF cells; assay type: cell-based, Human cytomegalovirus
Experimental: as §4, §1, §2

HSV-1 [7] = assay: HSV-1 plaque assay (used for DHPG); assay type: cell-based, herpes simplex virus 1; conditions: Human alphaherpesvirus 1; plaque assay used for DHPG instead of ELISA (footnote b); read-out: HSV-1 plaque assay 50% Inhibitory Concentration (IC50)
Experimental: as §4, with “Briefly, HFF or BSC-1 cells were planted as described above in 96-well cluster dishes and incubated overnight at 37° C. The next day cultures were inoculated with HCMV or HSV-1 and serially diluted 1:3 across the remaining eleven columns of the 96-well plate. After virus adsorption the inoculum was replaced with fresh medium and cultures were incubated for seven days for HCMV, two or three days for HSV-1. Plaques were enumerated under 20-fold magnification in wells having the dilution which gave 5 to 20 plaques per well.” left out

[8] = Human betaherpesvirus 5, HFF, Table 3, same data as Table 2, read-out: HCMV Strain Towne yield 90% Inhibitory Concentration (IC90)
[9] = Human betaherpesvirus 5, Table 2, HFF cells, duplicate, read-out: HCMV yield 90% Inhibitory Concentration (IC90)
[10] = Human betaherpesvirus 5, HFF, Table 3, same data as Table 2, read-out: HCMV Strain Towne plaque 50% Inhibitory Concentration (IC50)
[11] = Human betaherpesvirus 5, Table 2, HFF cells, duplicate, read-out: HCMV plaque 50% Inhibitory Concentration (IC50)

Row | IC50 (HCMV Strain AD169) | IC50 (HSV-1 [3]) | IC50 (Hepatitis B Virus (HBV); Hepatitis B virus) | IC50 (Hepatitis B Virus (HBV)) | melting point | IC90 (HCMV [5]; [8]) | IC90 (HCMV [5]; [9]) | IC50 (HCMV [6]; [10]) | IC50 (HCMV [6]; [11]) | IC50 (HSV-1 [7]) | Compound | inhibition of HCMV (HCMV [1]) | IC50 [2] | IC50 at 48 h [4]
1 |  |  |  |  |  |  |  |  |  |  | OC[C@H]1O[C@@H](n2c(Br)nc3cc(Cl)c(Cl)cc32)[C@H](O)[C@@H]1O [BDCRB, 2-bromo-5,6-dichloro-1-(β-D-ribofuranosyl)benzimidazole] | significant inhibitors of HCMV |  | 
2 | 0.8 µM | > 100 µM | 8.8 µM | 16 µM | 178 to 179 °C | 0.8 µM | 0.8 µM | 2.8 µM | 2.8 µM |  | OC[C@@H]1O[C@@H](n2c(Br)nc3cc(Cl)c(Cl)cc32)[C@H](O)[C@@H]1O [Compound 5a, 2-Bromo-5,6dichloro-1-(α-L-lyxofuranosyl)benzimidazole] |  | > 100 µM | > 100 µM
3 | 1.8 µM |  |  |  |  | 1.4 µM |  | 2.9 µM |  |  | OC[C@H]1O[C@@H](n2c(Cl)nc3cc(Cl)c(Cl)cc32)[C@H](O)[C@@H]1O [TCRB, 2,5,6-trichloro-1-(β-D-ribofuranosyl)benzimidazole, reference compound] | significant inhibitors of HCMV |  | 
4 |  |  |  |  |  |  | 1.6 ± 1.2 µM |  | 7.4 ± 6.5 µM | 3.5 ± 2.1 µM | Nc1nc(O)c2ncn(COC(CO)CO)c2n1 [ganciclovir (DHPG), ganciclovir, reference compound] |  | > 100 µM | > 100 µM

— US6455506B1, “Lyxofuranosyl benzimidazoles as antiviral agents” (SmithKline Beecham Corporation, priority 1997, dated 2002)
